Common to all, as to format: biochemical
Data set [1] has as its target T1, UGT1A9 (Homo sapiens, UniProt O60656).
T1 sequence (O60656 26-530): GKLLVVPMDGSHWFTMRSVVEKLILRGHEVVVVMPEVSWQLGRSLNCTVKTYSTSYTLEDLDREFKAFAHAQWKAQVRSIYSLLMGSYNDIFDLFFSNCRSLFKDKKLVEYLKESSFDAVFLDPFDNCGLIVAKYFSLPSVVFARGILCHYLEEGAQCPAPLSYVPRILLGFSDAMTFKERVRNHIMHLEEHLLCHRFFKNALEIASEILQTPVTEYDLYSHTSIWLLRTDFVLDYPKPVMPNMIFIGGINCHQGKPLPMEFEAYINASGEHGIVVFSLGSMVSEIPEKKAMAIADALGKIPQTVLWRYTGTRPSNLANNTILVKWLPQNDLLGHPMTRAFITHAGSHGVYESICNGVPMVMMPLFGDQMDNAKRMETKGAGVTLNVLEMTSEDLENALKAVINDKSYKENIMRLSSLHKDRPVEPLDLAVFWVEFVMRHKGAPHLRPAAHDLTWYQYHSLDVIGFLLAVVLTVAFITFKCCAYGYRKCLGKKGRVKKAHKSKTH
Nature of the data set: probe substrate turnover, UHPLC.

Another data set concerns the target T2, CYP1A2 (Homo sapiens, UniProt P05177).
T2 sequence (P05177 2-516): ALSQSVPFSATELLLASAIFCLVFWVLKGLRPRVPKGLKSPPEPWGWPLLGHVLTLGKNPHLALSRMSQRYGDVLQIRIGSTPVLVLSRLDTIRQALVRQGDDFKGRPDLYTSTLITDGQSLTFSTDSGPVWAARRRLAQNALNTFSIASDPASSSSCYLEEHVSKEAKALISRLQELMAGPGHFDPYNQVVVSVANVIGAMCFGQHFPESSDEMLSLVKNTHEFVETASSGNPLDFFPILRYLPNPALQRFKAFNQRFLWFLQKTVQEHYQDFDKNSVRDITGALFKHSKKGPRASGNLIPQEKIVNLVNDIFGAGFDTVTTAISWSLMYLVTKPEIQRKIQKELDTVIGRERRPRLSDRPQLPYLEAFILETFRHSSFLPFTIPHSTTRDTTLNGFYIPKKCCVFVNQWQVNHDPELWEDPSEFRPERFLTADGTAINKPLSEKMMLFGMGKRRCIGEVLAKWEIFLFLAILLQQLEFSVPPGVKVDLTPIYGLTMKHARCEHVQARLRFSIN
Nature of the data set: probe substrate turnover, UHPLC.

In the next data set the target is CYP2E1 (Homo sapiens, UniProt P05181). As to the kind of experiment: probe substrate turnover, UHPLC.
CYP2E1, sequence (P05181 whole entry): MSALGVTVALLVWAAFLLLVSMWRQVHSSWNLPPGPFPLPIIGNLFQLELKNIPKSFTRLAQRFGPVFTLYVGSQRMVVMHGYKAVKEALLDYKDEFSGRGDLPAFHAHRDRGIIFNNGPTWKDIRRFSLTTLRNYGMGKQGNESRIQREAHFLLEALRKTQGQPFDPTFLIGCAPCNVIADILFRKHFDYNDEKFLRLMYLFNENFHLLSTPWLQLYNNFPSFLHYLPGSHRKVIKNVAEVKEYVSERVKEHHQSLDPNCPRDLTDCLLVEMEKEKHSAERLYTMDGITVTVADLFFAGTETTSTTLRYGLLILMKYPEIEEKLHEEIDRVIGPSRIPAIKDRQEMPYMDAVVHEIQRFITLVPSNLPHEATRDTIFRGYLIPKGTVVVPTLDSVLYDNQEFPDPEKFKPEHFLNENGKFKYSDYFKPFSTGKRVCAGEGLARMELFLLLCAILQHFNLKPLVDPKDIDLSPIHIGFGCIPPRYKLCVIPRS
In data set [2] the target is T3, UGT2B7 (Homo sapiens, UniProt P16662).
T3 sequence (P16662 24-529): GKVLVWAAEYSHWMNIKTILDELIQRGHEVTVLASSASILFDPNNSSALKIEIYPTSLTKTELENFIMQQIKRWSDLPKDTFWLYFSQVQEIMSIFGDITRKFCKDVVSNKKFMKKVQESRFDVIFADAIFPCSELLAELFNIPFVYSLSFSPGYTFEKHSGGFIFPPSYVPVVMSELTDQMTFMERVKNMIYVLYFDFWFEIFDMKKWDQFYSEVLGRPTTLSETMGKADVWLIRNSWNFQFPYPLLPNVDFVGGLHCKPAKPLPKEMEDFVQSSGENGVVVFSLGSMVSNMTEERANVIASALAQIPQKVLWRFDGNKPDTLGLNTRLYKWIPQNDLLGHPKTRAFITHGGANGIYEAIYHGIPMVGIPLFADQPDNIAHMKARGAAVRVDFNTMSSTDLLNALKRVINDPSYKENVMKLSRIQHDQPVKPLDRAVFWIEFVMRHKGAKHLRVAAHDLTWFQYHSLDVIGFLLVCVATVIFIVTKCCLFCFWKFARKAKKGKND
As to the kind of experiment: probe substrate turnover, UHPLC.

The next data set deals with T4, CYP2C8 (Homo sapiens, UniProt P10632).
T4 sequence (P10632 1-490): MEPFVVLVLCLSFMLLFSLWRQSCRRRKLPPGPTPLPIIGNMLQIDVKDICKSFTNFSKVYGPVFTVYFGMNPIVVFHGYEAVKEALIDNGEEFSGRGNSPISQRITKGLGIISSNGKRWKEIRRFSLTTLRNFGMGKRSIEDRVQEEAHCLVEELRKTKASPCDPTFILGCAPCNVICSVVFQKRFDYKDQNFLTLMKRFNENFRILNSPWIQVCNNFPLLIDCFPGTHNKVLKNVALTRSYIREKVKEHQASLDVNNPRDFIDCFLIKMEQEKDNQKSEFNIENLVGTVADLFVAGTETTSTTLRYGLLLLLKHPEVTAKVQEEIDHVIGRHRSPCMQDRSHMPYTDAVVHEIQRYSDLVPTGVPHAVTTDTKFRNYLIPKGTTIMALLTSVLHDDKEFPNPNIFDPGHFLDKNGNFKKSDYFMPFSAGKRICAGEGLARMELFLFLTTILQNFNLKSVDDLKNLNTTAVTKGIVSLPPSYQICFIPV
Nature of the data set: probe substrate turnover, UHPLC.

Data set [3] concerns the target T5, CYP2B6 (Homo sapiens, UniProt P20813).
T5 sequence (P20813 1-491): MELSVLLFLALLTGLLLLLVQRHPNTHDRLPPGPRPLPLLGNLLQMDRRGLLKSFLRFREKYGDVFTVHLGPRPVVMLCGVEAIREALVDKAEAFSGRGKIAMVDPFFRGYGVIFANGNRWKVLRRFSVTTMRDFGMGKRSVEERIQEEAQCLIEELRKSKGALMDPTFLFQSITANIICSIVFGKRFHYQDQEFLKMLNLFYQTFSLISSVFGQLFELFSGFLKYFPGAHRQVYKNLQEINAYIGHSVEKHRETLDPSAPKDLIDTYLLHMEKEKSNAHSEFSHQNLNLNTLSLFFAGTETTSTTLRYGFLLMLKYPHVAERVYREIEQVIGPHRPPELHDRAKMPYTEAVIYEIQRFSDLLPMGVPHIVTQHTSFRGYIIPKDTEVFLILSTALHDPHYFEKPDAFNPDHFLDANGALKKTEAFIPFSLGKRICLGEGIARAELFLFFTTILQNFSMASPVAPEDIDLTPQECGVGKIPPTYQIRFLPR
As to the kind of experiment: probe substrate turnover, UHPLC.

Data set [4] concerns the target T6, CYP2C19 (Homo sapiens, UniProt P33261). As to the kind of experiment: inhibition kinetics, nonlinear fit, Dixon plot, UHPLC.
The target of data set [5] is T3, UGT2B7. Described as above.
Data set [6] concerns the target T7, CYP2C9 (Homo sapiens, UniProt P11712). The description is as above.
In data set [7] the target is T6, CYP2C19. As to the kind of experiment: probe substrate turnover, UHPLC.
The target in data set [8] is T5, CYP2B6. Nature of the data set: inhibition kinetics, nonlinear fit, Dixon plot, UHPLC.
A further data set has as its target CYP3A4 (Homo sapiens, UniProt P08684). As to the kind of experiment: probe substrate turnover, UHPLC.
Data set [9] deals with T1, UGT1A9. As to the kind of experiment: inhibition kinetics, nonlinear fit, Dixon plot, UHPLC.
The next data set addresses T8, UGT1A1 (Homo sapiens, UniProt P22309).
T8 sequence (P22309 26-533): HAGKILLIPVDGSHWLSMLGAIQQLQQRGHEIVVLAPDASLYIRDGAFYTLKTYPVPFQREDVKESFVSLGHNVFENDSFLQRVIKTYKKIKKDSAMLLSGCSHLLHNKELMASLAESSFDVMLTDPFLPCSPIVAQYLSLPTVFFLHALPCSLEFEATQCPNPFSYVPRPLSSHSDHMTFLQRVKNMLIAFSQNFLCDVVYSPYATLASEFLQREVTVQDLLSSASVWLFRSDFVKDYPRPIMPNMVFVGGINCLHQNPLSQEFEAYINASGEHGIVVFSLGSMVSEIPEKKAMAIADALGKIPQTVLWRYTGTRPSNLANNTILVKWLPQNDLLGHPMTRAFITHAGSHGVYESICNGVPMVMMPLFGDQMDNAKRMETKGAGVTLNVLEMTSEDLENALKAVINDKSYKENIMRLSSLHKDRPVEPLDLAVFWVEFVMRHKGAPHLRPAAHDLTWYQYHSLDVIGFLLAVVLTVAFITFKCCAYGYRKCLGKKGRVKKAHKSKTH
Nature of the data set: probe substrate turnover, UHPLC.

Data set [10] has as its target T7, CYP2C9. As to the kind of experiment: probe substrate turnover, UHPLC.

T6 sequence (P33261 whole entry): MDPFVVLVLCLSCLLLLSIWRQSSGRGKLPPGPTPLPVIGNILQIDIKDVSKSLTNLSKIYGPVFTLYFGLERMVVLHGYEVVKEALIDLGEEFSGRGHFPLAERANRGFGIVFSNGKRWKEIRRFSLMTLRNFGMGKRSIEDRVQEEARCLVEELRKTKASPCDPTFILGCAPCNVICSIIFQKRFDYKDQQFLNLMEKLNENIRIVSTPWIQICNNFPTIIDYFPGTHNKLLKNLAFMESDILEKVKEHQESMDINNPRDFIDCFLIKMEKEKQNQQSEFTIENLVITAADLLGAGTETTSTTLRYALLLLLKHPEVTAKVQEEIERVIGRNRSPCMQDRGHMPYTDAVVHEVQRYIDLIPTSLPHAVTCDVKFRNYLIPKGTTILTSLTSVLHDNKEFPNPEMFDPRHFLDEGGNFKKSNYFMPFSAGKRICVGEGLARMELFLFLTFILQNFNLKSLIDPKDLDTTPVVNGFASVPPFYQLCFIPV
T7 sequence (P11712 whole entry): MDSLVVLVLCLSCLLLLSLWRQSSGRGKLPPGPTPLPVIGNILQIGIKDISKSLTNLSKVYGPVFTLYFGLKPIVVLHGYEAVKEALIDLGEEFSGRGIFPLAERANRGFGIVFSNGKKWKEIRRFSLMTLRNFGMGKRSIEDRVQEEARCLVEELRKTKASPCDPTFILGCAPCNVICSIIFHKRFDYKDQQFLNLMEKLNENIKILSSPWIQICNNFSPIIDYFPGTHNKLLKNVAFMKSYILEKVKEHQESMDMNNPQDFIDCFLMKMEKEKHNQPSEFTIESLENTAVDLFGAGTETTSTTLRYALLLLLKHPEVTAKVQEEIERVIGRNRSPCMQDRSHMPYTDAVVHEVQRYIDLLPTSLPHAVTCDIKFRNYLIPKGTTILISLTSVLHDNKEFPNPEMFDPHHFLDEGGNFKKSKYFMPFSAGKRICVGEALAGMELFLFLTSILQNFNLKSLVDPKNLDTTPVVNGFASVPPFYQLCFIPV
CYP3A4, sequence (P08684 2-503): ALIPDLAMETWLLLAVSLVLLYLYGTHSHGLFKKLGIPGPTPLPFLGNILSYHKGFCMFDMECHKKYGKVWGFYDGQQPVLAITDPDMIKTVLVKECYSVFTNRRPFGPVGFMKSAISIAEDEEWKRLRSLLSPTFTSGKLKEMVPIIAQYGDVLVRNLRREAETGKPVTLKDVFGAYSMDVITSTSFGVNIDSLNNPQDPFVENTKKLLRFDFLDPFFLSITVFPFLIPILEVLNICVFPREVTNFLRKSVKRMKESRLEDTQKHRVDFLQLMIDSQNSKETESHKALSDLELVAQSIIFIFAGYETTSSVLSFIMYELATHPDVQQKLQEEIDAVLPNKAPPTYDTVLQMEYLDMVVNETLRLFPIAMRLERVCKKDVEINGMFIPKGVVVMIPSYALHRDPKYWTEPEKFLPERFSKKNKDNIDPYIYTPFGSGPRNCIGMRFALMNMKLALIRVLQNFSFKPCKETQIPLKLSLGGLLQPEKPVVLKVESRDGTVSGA

In the case of `COc1cc2c(cc1CC=C(C)C)C(=O)C[C@@H](c1ccc(O)cc1)O2` [bavachinin], the half-inhibitory concentration (IC50) against UGT1A9 [1] was determined as 2340 ± 610 nM; at UGT2B7 [2], 2530 ± 620 nM; at CYP2B6 [3], 1680 ± 630 nM; on CYP2C19 [7] it was 1380 ± 530 nM; on UGT1A1 it was 20700 ± 10600 nM; against CYP2C9 [10] it was 280 ± 70 nM. Besides, the “% residual activity at 100 μM” value on CYP1A2 was determined as 91.5%; at CYP2E1 it was 51.5%; at CYP2C8 it was 21.5%; on CYP3A4, 24.7%. In addition, the inhibition constant Ki at CYP2C19 [4] was 1860 ± 160 nM; at UGT2B7 [5], 1130 ± 120 nM; at CYP2C9 [6], 190 ± 30 nM; at CYP2B6 [8] it was 1510 ± 120 nM; at UGT1A9 [9] it was 370 ± 40 nM.

The record behind these values is article PMC9056855 (RSC Advances, 2020).
